This passage reports EC50 results from ChEMBL document CHEMBL1157339, “Sundaicumones A and B, polyprenylated acylphloroglucinol derivatives from Calophyllumsundaicum with weak activity against the glucocorticoid receptor” (J Nat Prod, 2006).

For this test, the target named is T1, Glucocorticoid receptor (Homo sapiens, UniProt P04150).
T1 sequence (P04150 whole entry): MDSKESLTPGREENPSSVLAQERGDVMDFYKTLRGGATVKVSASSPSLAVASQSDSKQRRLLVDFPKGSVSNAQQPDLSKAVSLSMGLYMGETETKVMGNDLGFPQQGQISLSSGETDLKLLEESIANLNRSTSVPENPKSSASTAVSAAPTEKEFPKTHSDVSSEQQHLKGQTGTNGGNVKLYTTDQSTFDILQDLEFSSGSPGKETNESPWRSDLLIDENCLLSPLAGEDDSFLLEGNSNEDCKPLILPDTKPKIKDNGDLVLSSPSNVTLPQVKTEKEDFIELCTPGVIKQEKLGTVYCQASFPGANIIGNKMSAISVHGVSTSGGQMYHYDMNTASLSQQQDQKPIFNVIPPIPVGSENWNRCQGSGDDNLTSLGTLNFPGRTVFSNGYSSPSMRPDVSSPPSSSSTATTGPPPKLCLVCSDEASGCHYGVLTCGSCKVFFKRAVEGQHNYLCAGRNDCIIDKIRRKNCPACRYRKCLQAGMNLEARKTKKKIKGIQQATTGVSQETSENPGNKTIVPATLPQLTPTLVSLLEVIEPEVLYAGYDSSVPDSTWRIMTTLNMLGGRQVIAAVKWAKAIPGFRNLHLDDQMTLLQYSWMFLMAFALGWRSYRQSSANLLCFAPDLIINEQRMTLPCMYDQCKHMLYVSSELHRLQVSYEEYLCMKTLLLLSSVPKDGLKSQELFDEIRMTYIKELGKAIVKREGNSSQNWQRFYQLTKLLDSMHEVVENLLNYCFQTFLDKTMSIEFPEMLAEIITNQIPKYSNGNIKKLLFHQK
Briefly: Activity at glucocorticoid receptor in human A549 cells assessed as effect on GRE promoter response by luciferase reporter assay. The test is classed as cell-based. (In general: Reporter assays use an easily measured gene product as a stand-in for the process of interest.)

Each structure is given as a SMILES string.

Broadly, the EC50 is the concentration that produces a half-maximal response. As for `CCCC(CC(=O)O)C1=C2O[C@H](C(C)(C)O)C[C@@]23C[C@H](CC(O)C(C)(C)O)C(C)(C)[C@@](C(=O)C(C)CC)(C1=O)C3=O` (some centres not stated) [SUNDAICUMONE A], the EC50 stood at 173 µM.

Regarding `CCCC(CC(=O)O)C1=C2O[C@H](C(C)(C)O)C[C@@]23C[C@H](CC=C(C)C)C(C)(C)[C@@](C(=O)C(C)CC)(C1=O)C3=O` (some centres not stated) [SUNDAICUMONE B], the EC50 amounted to 75 µM.
